Key:
[1] = biological target: T1, Estrogen Receptor (ERα) in MCF-7 human ductal carcinoma breast cell line (Homo sapiens, UniProt P03372); assay: MCF-7 ER degradation assay (cell based immuno-fluorescence); settings: MCF-7 cells; for ER degradation ≥ 90% at 0.3 μM: ER degradation by fulvestrant at 0.3 μM is defined as 100%; for DC50: 18-22 hours incubation, 50% reduction of ERα expression, single experiment or average of two or more, read-out: MCF-7 ER degradation IC50
T1 construct: endogenous in cells; host or cells: MCF-7
T1 sequence (P03372 1-595): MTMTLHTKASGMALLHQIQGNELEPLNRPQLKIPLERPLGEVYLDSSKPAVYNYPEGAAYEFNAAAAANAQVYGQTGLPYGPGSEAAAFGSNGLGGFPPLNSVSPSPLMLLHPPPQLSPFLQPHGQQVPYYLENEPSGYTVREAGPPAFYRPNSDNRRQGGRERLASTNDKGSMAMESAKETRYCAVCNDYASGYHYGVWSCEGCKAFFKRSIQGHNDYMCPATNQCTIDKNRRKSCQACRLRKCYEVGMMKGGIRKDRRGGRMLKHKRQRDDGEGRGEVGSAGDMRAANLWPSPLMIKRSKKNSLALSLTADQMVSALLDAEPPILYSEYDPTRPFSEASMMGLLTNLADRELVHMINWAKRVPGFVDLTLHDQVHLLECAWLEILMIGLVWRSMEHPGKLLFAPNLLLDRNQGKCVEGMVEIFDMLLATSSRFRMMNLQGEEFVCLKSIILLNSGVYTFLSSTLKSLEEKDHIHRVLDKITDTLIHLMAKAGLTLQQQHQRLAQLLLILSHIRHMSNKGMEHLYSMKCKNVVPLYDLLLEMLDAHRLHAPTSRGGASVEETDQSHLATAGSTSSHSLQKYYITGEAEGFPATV
Procedure: MCF-7 ER Degradation Assay
The ability of compounds to down-regulate Estrogen Receptor (ER) numbers was assessed in a cell based immuno-fluorescence assay using the MCF-7 human ductal carcinoma breast cell line. MCF-7 cells were revived directly from a cryovial (approx 5×10^6 cells) in Assay Medium (phenol red free Dulbecco's Modified Eagle's medium (DMEM); Sigma D5921) containing 2 mM L-Glutamine and 5% (v/v) Charcoal/Dextran treated foetal calf serum. Cells were syringed once using a sterile 18 G×1.5 inch (1.2×40 mm) broad gauge needle and cell density was measured using a Coulter Counter (Beckman). Cells were further diluted in Assay Medium to a density of 3.75×10^4 cells per mL and 40 μL per well added to transparent bottomed, black, tissue culture-treated 384 well plates (Costar, No. 3712) using a Thermo Scientific Matrix WellMate or Thermo Multidrop. Following cell seeding, plates were incubated overnight at 37° C., 5% CO2 (Liconic carousel incubator). Test data was generated using the LabCyte Echo™ model 555 compound reformatter which is part of an automated workcell (Integrated Echo 2 workcell). Compound stock solutions (10 mM) of the test compounds were used to generate a 384 well compound dosing plate (Labcyte P-05525-CV1). 40 μL of each of the 10 mM compound stock solutions was dispensed into the first quadrant well and then 1:100 step-wise serial dilutions in DMSO were performed using a Hydra II (MATRIX UK) liquid handling unit to give 40 μL of diluted compound into quadrant wells 2 (0.1 mM), 3 (1 μM) and 4 (0.01 μM), respectively. 40 μL of DMSO added to wells in row P on the source plate allowed for DMSO normalisation across the dose range. To dose the control wells 40 μL of DMSO was added to row O1 and 40 μL of 100 μM fulvestrant in DMSO was added to row O3 on the compound source plate.
The Echo uses acoustic technology to perform direct microplate-to-microplate transfers of DMSO compound solutions to assay plates. The system can be programmed to transfer volumes as low as 2.5 nL in multiple increments between microplates and in so doing generates a serial dilution of compound in the assay plate which is then back-filled to normalise the DMSO concentration across the dilution range. Compounds were dispensed onto the cell plates with a compound source plate prepared as above producing a 12 point duplicate […] dose range with 3-fold dilutions and one final 10-fold dilution using the Integrated Echo 2 workcell. The maximum signal control wells were dosed with DMSO to give a final concentration of 0.3%, and the minimum signal control wells were dosed with fulvestrant to give a final concentration of 100 nM accordingly. Plates were further incubated for 18-22 hours at 37° C., 5% CO2 and then fixed by the addition of 20 μL of 11.1% (v/v) formaldehyde solution (in phosphate buffered saline (PBS)) giving a final formaldehyde concentration of 3.7% (v/v). Cells were fixed at room temperature for 20 mins before being washed two times with 250 μL PBS/Proclin (PBS with a Biocide preservative) using a BioTek platewasher, 40 μL of PBS/Proclin was then added to all wells and the plates stored at 4° C. The fixing method described above was carried out on the Integrated Echo 2 workcell. Immunostaining was performed using an automated AutoElisa workcell. The PBS/Proclin was aspirated from all wells and the cells permeabilised with 40 μL PBS containing 0.5% Tween™ 20 (v/v) for 1 hour at room temperature. The plates were washed three times in 250 μL of PBS/0.05% (v/v) Tween 20 with Proclin (PBST with a Biocide preservative) and then 20 μL of ERα (SP1) Rabbit monoclonal antibody (Thermofisher) 1:1000 in PBS/Tween™/3% (w/v) Bovine Serum Albumin was added. The plates were incubated overnight at 4° C. (Liconic carousel incubator) and then washed three times in 250 μL of PBS/0.05% (v/v) Tween™ 20 with Proclin (PBST). […]

[2] = biological target: T2, recombinant human Estrogen Receptor alpha ligand binding domain, residues 307-554 (ER alpha-LBD (GST)) (Homo sapiens, UniProt P03372); assay: ERα binding assay (LanthaScreen TR-FRET competition); settings: TR-FRET competition with Fluormone ES2 tracer, 4 hours at room temperature; single experiment or average of two or more
T2 construct: made in house
T2 sequence (P03372 307-554): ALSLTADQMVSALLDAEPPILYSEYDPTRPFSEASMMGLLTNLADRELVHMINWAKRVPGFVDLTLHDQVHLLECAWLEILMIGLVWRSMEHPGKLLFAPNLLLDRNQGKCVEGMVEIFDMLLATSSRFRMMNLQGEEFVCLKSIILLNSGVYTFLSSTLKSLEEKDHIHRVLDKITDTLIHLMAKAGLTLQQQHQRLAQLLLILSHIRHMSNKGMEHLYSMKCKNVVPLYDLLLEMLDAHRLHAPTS
Procedure: The ability of compounds to bind to isolated Estrogen Receptor Alpha Ligand binding domain (ER alpha-LBD (GST)) was assessed in competition assays using a LanthaScreen™ Time-Resolved Fluorescence Resonance Energy Transfer (TR-FRET) detection end-point. For the LanthaScreen TR-FRET endpoint, a suitable fluorophore (Fluormone ES2, ThermoFisher, Product code P2645) and recombinant human Estrogen Receptor alpha ligand binding domain, residues 307-554 (expressed and purified in-house) were used to measure compound binding. The assay principle is that ER alpha-LBD (GST) is added to a fluorescent ligand to form a receptor/fluorophore complex. A terbium-labelled anti-GST antibody (Product code PV3551) is used to indirectly label the receptor by binding to its GST tag, and competitive binding is detected by a test compound's ability to displace the fluorescent ligand, resulting in a loss of TR-FRET signal between the Tb-anti-GST antibody and the tracer. The assay was performed as follows with all reagent additions carried out using the Beckman Coulter BioRAPTR FRD microfluidic workstation: • 1. Acoustic dispense 120 nL of the test compound into a black low volume 384 well assay plates. • 2. Prepare 1×ER alpha-LBD/Tb-antiGST Ab in ES2 screening buffer and incubate for 15 minutes. • 3. Dispense 6 μL of the […] reagent into each well of the assay plate followed by 6 μL of Fluorophore reagent into each well of the assay plate • 4. Cover the assay plate to protect the reagents from light and evaporation, and incubate at room temperature for 4 hours. • 5. Excite at 337 nm and measure the fluorescent emission signal of each well at 490 nm and 520 nm using the BMG PheraSTAR.
Compounds were dosed directly from a compound source microplate containing serially diluted compound (4 wells containing 10 mM, […] and 10 nM final compound respectively) to an assay microplate using the Labcyte Echo 550. The Echo 550 is a liquid handler that uses acoustic technology to perform direct microplate-to-microplate transfers of DMSO compound solutions and the system can be programmed to transfer multiple small nL volumes of compound from the different source plate wells to give the desired serial dilution of compound in the assay which is then back-filled to normalise the DMSO concentration across the dilution range.
In total 120 nL of compound plus DMSO were added to each well and compounds were tested in a 12-point concentration response format over a final compound concentration range of 10, 2.917, 1.042, 0.2083, 0.1, 0.0292, 0.0104, 0.002083, 0.001, 0.0002917, 0.0001042, and 0.00001 μM respectively. TR-FRET dose response data obtained with each compound was exported into a suitable software package (such as Origin or Genedata) to perform curve fitting analysis. Competitive ER alpha binding was expressed as an IC50 value. This was determined by calculation of the concentration of compound that was required to give a 50% reduction in tracer compound binding to ER alpha-LBD.

Row | Compound | ER degradation ≥ 90% at 0.3 μM [1] | IC50 [2] [nM] | DC50 [1] [nM]
1 | Cc1ncsc1-c1ccc(CNC(=O)[C@@H]2C[C@@H](O)CN2C(=O)[C@@H](NC(=O)COCCCOCCCOc2cc(F)c([C@@H]3c4[nH]c5ccccc5c4C[C@@H](C)N3CC(C)(C)F)c(F)c2)C(C)(C)C)cc1 [Example 72, (2S,4R)-1-((S)-2-(2-(3-(3-(3,5-Difluoro-4-((1R,3R)-2-(2-fluoro-2-methylpropyl)-3-methyl-2,3,4,9-tetrahydro-1H-pyrido[3,4-b]indol-1-yl)phenoxy)propoxy)propoxy)acetamido)-3,3-dimethylbutanoyl)-4-hydroxy-N-(4-(4-methylthiazol-5-yl)benzyl)pyrrolidine-2-carboxamide] | •• | 0.6 | –
2 | Cc1ncsc1-c1ccc(CNC(=O)[C@@H]2C[C@@H](O)CN2C(=O)[C@@H](NC(=O)COCCOCCOc2cc(F)c([C@@H]3c4[nH]c5ccccc5c4C[C@@H](C)N3CC(C)(C)F)c(F)c2)C(C)(C)C)cc1 [Example 39, (2S,4R)-1-((S)-2-(2-(2-(2-(3,5-difluoro-4-((R,3R)-2-(2-fluoro-2-methylpropyl)-3-methyl-2,3,4,9-tetrahydro-1H-pyrido[3,4-b]indol-1-yl)phenoxy)ethoxy)ethoxy)acetamido)-3,3-dimethylbutanoyl)-4-hydroxy-N-(4-(4-methylthiazol-5-yl)benzyl)pyrrolidine-2-carboxamide] | • | 0.7 | –
3 | Cc1ncsc1-c1ccc(CNC(=O)[C@@H]2C[C@@H](O)CN2C(=O)[C@@H](NC(=O)COCc2cccnc2COc2cc(F)c([C@@H]3c4[nH]c5ccccc5c4C[C@@H](C)N3CC(C)(C)F)c(F)c2)C(C)(C)C)cc1 [Example 133, (2S,4R)-1-((S)-2-(2-((2-((3,5-Difluoro-4-((1R,3R)-2-(2-fluoro-2-methylpropyl)-3-methyl-2,3,4,9-tetrahydro-1H-pyrido[3,4-b]indol-1-yl)phenoxy)methyl)pyridin-3-yl)methoxy)acetamido)-3,3-dimethylbutanoyl)-4-hydroxy-N-(4-(4-methylthiazol-5-yl)benzyl)pyrrolidine-2-carboxamide] | – | 0.7 | 0.8
4 | Cc1ncsc1-c1ccc([C@H](C)NC(=O)[C@@H]2C[C@@H](O)CN2C(=O)[C@@H](NC(=O)COCCCOCCCCOc2cc(F)c([C@@H]3c4[nH]c5ccccc5c4C[C@@H](C)N3CC(C)(C)F)c(F)c2)C(C)(C)C)cc1 [Example 155, (2S,4R)-1-((S)-2-(2-(3-(4-(3,5-Difluoro-4-((1R,3R)-2-(2-fluoro-2-methylpropyl)-3-methyl-2,3,4,9-tetrahydro-1H-pyrido[3,4-b]indol-1-yl)phenoxy)butoxy)propoxy)acetamido)-3,3-dimethylbutanoyl)-4-hydroxy-N—((S)-1-(4-(4-methylthiazol-5-yl)phenyl)ethyl)pyrrolidine-2-carboxamide] | – | 0.3 | 0.7
5 | Cc1ncsc1-c1ccc(CNC(=O)[C@@H]2C[C@@H](O)CN2C(=O)[C@@H](N(C)C(=O)COCCOCCOCCOc2cc(F)c([C@@H]3c4[nH]c5ccccc5c4C[C@@H](C)N3CC(C)(C)F)c(F)c2)C(C)(C)C)cc1 [Example 31, (2S,4R)-1-((S)-2-(tert-Butyl)-14-(3,5-difluoro-4-((1R,3R)-2-(2-fluoro-2-methylpropyl)-3-methyl-2,3,4,9-tetrahydro-1H-pyrido[3,4-b]indol-1-yl)phenoxy)-3-methyl-4-oxo-6,9,12-trioxa-3-azatetradecanoyl)-4-hydroxy-N-(4-(4-methylthiazol-5-yl)benzyl)pyrrolidine-2-carboxamide] | – | 0.6 | 0.3

Reference: patent US10519152B2, “Compounds and their use in treating cancer” (AstraZeneca AB, priority 2017, dated 2019)
